This is an account of results in PubChem BioAssay (NCI).

Test systems include BT-549 breast; MDA-MB-231 breast; MDA-MB-435; SK-MEL-2 melanoma; SNB-75 CNS; SR leukemia; T-47D breast; DLD-1 colon; SNB-78 CNS.
Assay in all cases: NCI tumour cell line growth inhibition, 48 h

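Values below derive from 48-hour exposures of cells grown in 96-well plates, with endpoints linearly interpolated between the two concentrations bracketing the appropriate inhibition level. GI50: concentration for 50% inhibition of growth. At the TGI there is no net growth.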 Some results are limits rather than exact numbers.

On to `CCC(=C(c1ccc(OCCN(CC)CC)cc1)c1ccc(OCCN(CC)CC)cc1)c1ccc(Cl)cc1`, for which the GI50 in the test with BT-549 breast was 0.647 µM; with MDA-MB-231 breast, 0.573 µM; with MDA-MB-435, 0.578 µM; with SK-MEL-2 melanoma, 0.634 µM; in the test on SNB-75 CNS, 0.668 µM; in the test with SR leukemia it was 0.249 µM. Besides, the GI50 in the test on T-47D breast is 0.574 µM. In addition, the TGI with BT-549 breast worked out at 1.45 µM; in the test with MDA-MB-231 breast it was 1.09 µM; in the test on MDA-MB-435 it was 1.07 µM; in the test on SK-MEL-2 melanoma, 1.27 µM; in the test with SNB-75 CNS it was 2.32 µM; in the test with SR leukemia, 0.981 µM. In the test with T-47D breast, the TGI was 1.39 µM.
For `Cc1cc2c(SCc3ccccc3Cl)nc(N)nc2nc1C`, the TGI in the test on BT-549 breast, in the test on MDA-MB-231 breast, in the test with MDA-MB-435, in the test with SK-MEL-2 melanoma, with SNB-75 CNS and with SR leukemia was above 100 µM in each case. Also, in the test on T-47D breast, the TGI was above 100 µM.
Regarding `O=c1cccccc1[O-].O=c1cccccc1[O-].O=c1cccccc1[O-].[Dy+3]`, the values for the GI50 with DLD-1 colon and with SNB-78 CNS were 16.9 µM and 15.3 µM, respectively. In addition, the TGI in the test with DLD-1 colon is above 100 µM; in the test on SK-MEL-2 melanoma it was above 100 µM; in the test with SNB-75 CNS it was 52.1 µM; in the test with SNB-78 CNS, above 100 µM.
In the case of `O=C(NCc1cccnc1)c1ccc([N+](=O)[O-])o1`, the GI50 was 9.77 µM in the test on BT-549 breast; 16.1 µM in the test on MDA-MB-231 breast; 1.03 µM with MDA-MB-435; 4.91 µM in the test on SK-MEL-2 melanoma; 1.18 µM in the test with SNB-75 CNS; 1.24 µM with SR leukemia. The GI50 with T-47D breast was 6.9 µM. For the same compound, the TGI was above 15.1 µM in the test with BT-549 breast; above 32.5 µM with MDA-MB-231 breast; 4.06 µM in the test on MDA-MB-435; 14.4 µM in the test with SK-MEL-2 melanoma; 7.24 µM in the test on SNB-75 CNS; above 32.5 µM in the test with SR leukemia. Besides, the TGI in the test with T-47D breast came out at 32.4 µM.
As for `CCOC(=O)C1C(=O)C(=O)N2CCc3c([nH]c4ccccc34)C12` (stereo unspecified), the TGI in the test with DLD-1 colon, with SK-MEL-2 melanoma and in the test on SR leukemia was above 100 µM in each case.
As to `Nc1ccc(N)c2c1C(=O)c1cccc([N+](=O)[O-])c1C2=O`, the GI50 is 2.54 µM with BT-549 breast; 27 µM with MDA-MB-231 breast; 6.3 µM in the test on MDA-MB-435; 7.74 µM with SK-MEL-2 melanoma; 2.13 µM in the test with SNB-75 CNS; 0.529 µM in the test on SR leukemia. The GI50 in the test with T-47D breast was 6.99 µM. For the same compound, the TGI is above 31.2 µM in the test with BT-549 breast; above 100 µM in the test on MDA-MB-231 breast; above 100 µM with MDA-MB-435; above 100 µM in the test with SK-MEL-2 melanoma; 24.5 µM with SNB-75 CNS; above 20.6 µM with SR leukemia. Also, the TGI in the test on T-47D breast was above 100 µM.
Turning to `O=C(COC(=O)[C@H](C[Se][Se]C[C@H](NC(=O)c1ccc(Br)cc1F)C(=O)OCC(=O)c1ccc(F)cc1)NC(=O)c1ccc(Br)cc1F)c1ccc(F)cc1`, the GI50 with BT-549 breast is 0.603 µM; in the test on MDA-MB-231 breast, 1.65 µM; with MDA-MB-435, 1.89 µM; with SK-MEL-2 melanoma, 1.66 µM; in the test with SNB-75 CNS, 0.354 µM; with SR leukemia, 0.92 µM. Further, the GI50 with T-47D breast is 1.41 µM. Also, the TGI is 1.31 µM with BT-549 breast; 4.03 µM in the test on MDA-MB-231 breast; 4.3 µM in the test with MDA-MB-435; 4.74 µM in the test with SK-MEL-2 melanoma; 0.964 µM in the test with SNB-75 CNS; above 43.5 µM with SR leukemia. In addition, in the test on T-47D breast, the TGI turned out to be 4.08 µM.
For `CCn1c(SC)nnc1-c1cc2c([nH]c3ccccc32)c(-c2cccc(O)c2)n1`, the GI50 is 1.68 µM in the test on BT-549 breast; 2.43 µM in the test with MDA-MB-231 breast; 0.248 µM in the test with MDA-MB-435; 1.88 µM in the test on SK-MEL-2 melanoma; 1.3 µM in the test on SNB-75 CNS; 0.34 µM in the test with SR leukemia. In addition, the GI50 in the test on T-47D breast is 1.78 µM. For the same compound, the TGI is 6.31 µM with BT-549 breast; 15.9 µM in the test on MDA-MB-231 breast; 0.851 µM in the test with MDA-MB-435; 7.6 µM in the test on SK-MEL-2 melanoma; 3.94 µM in the test with SNB-75 CNS; above 100 µM in the test with SR leukemia. This compound returned a TGI in the test on T-47D breast of 22.5 µM.
For the compound `CN1C/C(=C\c2ccco2)c2nc(N)nc(-c3ccco3)c2C1`, the TGI with DLD-1 colon, with SK-MEL-2 melanoma and in the test with SNB-75 CNS was above 100 µM each time.
In the case of `Cc1[nH]n(C(=O)c2ccc(Cl)cc2)c(=O)c1/C=C1\C(O)=CC(=O)c2ccccc21`, the TGI in the test with DLD-1 colon, in the test on SK-MEL-2 melanoma and in the test on SNB-78 CNS was above 100 µM in each case.
On to `COc1ccc(S(=O)(=O)NCCCNc2nccc(-c3c(-c4ccc(F)cc4)nc4sccn34)n2)cc1`, for which the GI50 is 5.42 µM in the test with BT-549 breast; 7.27 µM in the test with MDA-MB-231 breast; 3.28 µM in the test with MDA-MB-435; 12.4 µM in the test on SK-MEL-2 melanoma; 1.56 µM in the test on SNB-75 CNS; 3.69 µM in the test with SR leukemia. The GI50 in the test on T-47D breast was 3.24 µM. In addition, the TGI with BT-549 breast was 59.4 µM; in the test on MDA-MB-231 breast it was above 100 µM; with MDA-MB-435, above 100 µM; in the test with SK-MEL-2 melanoma it was 50.3 µM; with SNB-75 CNS it was 7.41 µM; in the test with SR leukemia it was above 100 µM. Besides, the TGI in the test with T-47D breast came out at 71.3 µM.
Turning to `CN1CCN(Cc2ccc(NC(=O)c3cncc(C#Cc4cnc5cccnn45)c3)cc2C(F)(F)F)CC1`, the GI50 with BT-549 breast was 1.74 µM; with MDA-MB-231 breast it was 0.798 µM; in the test on MDA-MB-435, 1.13 µM; in the test on SK-MEL-2 melanoma, 0.639 µM; in the test with SNB-75 CNS, 0.914 µM; with SR leukemia, 1.39 µM. In addition, the GI50 with T-47D breast was 2.2 µM. For the same compound, the TGI in the test on BT-549 breast was 5.65 µM; in the test with MDA-MB-231 breast, 3.87 µM; with MDA-MB-435, 3.76 µM; in the test on SK-MEL-2 melanoma, 1.71 µM; with SNB-75 CNS it was 1.88 µM; in the test on SR leukemia, 17.6 µM. This compound showed a TGI with T-47D breast of 11.9 µM.
Consider `COc1cc2c(cc1OCCCN1CCN(CCCn3c4ccccc4c4ccccc43)CC1)N=C[C@@H]1CCCN1C2=O`, for which the GI50 was 0.0587 µM in the test with BT-549 breast; 0.217 µM with MDA-MB-231 breast; 0.0553 µM in the test with MDA-MB-435; 0.159 µM in the test with SK-MEL-2 melanoma; below 0.0395 µM with SNB-75 CNS; 0.0206 µM in the test with SR leukemia. Besides, the GI50 in the test on T-47D breast is 0.206 µM. Further, the TGI amounted to 0.288 µM with BT-549 breast; 1.02 µM with MDA-MB-231 breast; 0.121 µM in the test on MDA-MB-435; 0.539 µM in the test on SK-MEL-2 melanoma; 0.102 µM in the test with SNB-75 CNS; 12.4 µM with SR leukemia. Also, the TGI in the test on T-47D breast is 0.868 µM.
Take `COc1cc([C@H]2c3cc(O)c(OC)cc3C[C@]3(O)[C@@H]2CO[C@@H]3O)ccc1O`: the TGI in the test with BT-549 breast, in the test with MDA-MB-231 breast, with MDA-MB-435, in the test with SK-MEL-2 melanoma, in the test with SNB-75 CNS and with SR leukemia was above 100 µM throughout. This compound registered a TGI in the test on T-47D breast above 100 µM.
